The series relates to DHD-K12 cells. The conditions noted are these: rat, in vivo. The text has this: Autologous colon carcinoma DHD-K12 line cells were inoculated intra-splenically in BDIX rats. These cells metastatize at polmonar and hepatic level and naturally express the epitope common also to human colon rectal carcinoma ([…] (SEQ ID NO:4)). To evaluate the relevance of […] (SEQ ID NO:4) antigen in antigen specific cytotoxic response BDIX rats were immunized with DHD-K12.
PBMC cytotoxic activity (cytotoxicity test based on the release of ^51Cr or LDH) of BDIX rats against DHD-K12 cells was evaluated after immunization and tumor inoculum.

Where no end group is shown, it is not given here.

Consider RTQKEASIC, for which the “PBMC cytotoxic activity after tumor inoculum, pre-immunized vs non immunized rats” value is “significantly increased” and the “PBMC cytotoxic activity against DHD-K12 after immunization” value was “high cytotoxic activity”.

Values taken from US9150627B2, “Anti tumoral immunogenic peptides and vaccine thereof” (priority 2004, dated 2015).
